Where “and” joins values, the source holds several entries; their conditions need not be identical. Equal values may be shown once. Values belong to the compound of their own block, whether it stands above or below them.
How the values were obtained:
[1] = Ferric reducing antioxidant power (FRAP); details: sample 1 mM, 30 min, gallic acid equivalents, mean (±SD), triplicate
From the text: (§1) Table 3 Antioxidant activity.

MCF-10A = assay: MTT cytotoxicity assay, non-cancer MCF-10A; assay type: cell-based, human; details: 72 h incubation, mean ± SD of three independent experiments
[2] = ABTS radical scavenging activity; details: sample 1 mM, 30 min, gallic acid equivalents, mean (±SD), triplicate
From the text: as §1

MCF-7 = assay: MTT antiproliferative assay, MCF-7; assay type: cell-based, human; details: mean ± SD of three independent experiments
HCT116 = assay: MTT antiproliferative assay, HCT116; assay type: cell-based, human; details: mean ± SD of three independent experiments
[3] = DPPH radical scavenging activity; details: sample 1 mM; for DPPH: 30 min, gallic acid equivalents, mean (±SD), triplicate
Hela = assay: MTT antiproliferative assay, HeLa; assay type: cell-based, human; details: 72 h incubation, mean ± SD of three independent experiments
Procedure: Table 2 IC50 (μM) ± SD of tested compounds in different cell lines after 72 h incubation. | column: Cell Line, IC50 (µM) ± SD / Hela

MDA-MB-231 = assay: MTT antiproliferative assay, MDA-MB-231; assay type: cell-based, human; details: MDA-MB-231, 72 h incubation, mean ± SD of three independent experiments
Jurkat = assay: MTT antiproliferative assay, Jurkat; assay type: cell-based, human; details: 72 h incubation, mean ± SD of three independent experiments
[4] = Homo sapiens, MCF7, MCF-7, 72 h incubation
[5] = Homo sapiens, HCT-116, HCT116, 72 h incubation
[6] = Homo sapiens, MCF7, 72 h, MCF-7, 72 h incubation
[7] = Homo sapiens, HCT-116, 72 h, HCT116, 72 h incubation

Structure (SMILES): Cn1cc(C(=O)/C=C/c2ccc(O)cc2)c2ccccc21 [17b, (2E)-3-(4-hydroxyphenyl)-1-(1-methyl-1H-indol-3-yl)prop-2-en-1-one]
- FRAP [1]: 156.2 (±1.1) µmol GAE/mmol
- IC50 (MCF-10A; Homo sapiens): 22.8 ± 0.4 µM
- ABTS [2]: 218.9 (±5.6) µmol GAE/mmol
- IC50 (MCF-7; [4]): 50.3 ± 0.6 µM
- melting point: 236 to 239 °C
- IC50 (HCT116; [5]): > 100 µM
- DPPH [3]: 20.7 (±6.6) µmol GAE/mmol

Structure (SMILES): CC(C)COc1[nH]c2ccccc2c1/C=C/C(=O)c1ccc(F)cc1 [11i, (2E)-3-(2′-isobutoxy-1′H-indol-3′-yl)-1-(4″-fluorophenyl)prop-2-en-1-one]
- IC50 (Hela): 54.6 ± 3.6 µM
- IC50 (MCF-10A): 93.3 ± 3.4 µM
- IC50 (MDA-MB-231): 42.9 ± 0.4 µM
- IC50 (MCF-7; MCF-7, 72 h incubation): 30.7 ± 0.6 µM
- IC50 (HCT116; HCT116, 72 h incubation): 33.8 ± 0.1 µM
- IC50 (Jurkat): 40.1 ± 3.2 µM

Structure (SMILES): O=C(/C=C/c1c(OCCO)[nH]c2ccccc12)c1ccccc1F [11k, (2E)-1-(2-fluorophenyl)-3-[2-(2-hydroxyethoxy)-1H-indol-3-yl]prop-2-en-1-one]
- IC50 (Hela; Homo sapiens, HeLa, 72 h): 52.9 ± 1.6 µM
- IC50 (MCF-10A; Homo sapiens, MCF-10A, 72 h): 94.7 ± 2.6 µM
- IC50 (MDA-MB-231; Homo sapiens): 64.5 ± 4.7 µM
- IC50 (MCF-7; [6]): 38.1 ± 3.3 µM
- melting point: 140 to 143 °C
- IC50 (HCT116; [7]): 39.4 ± 1.5 µM
- IC50 (Jurkat; Homo sapiens): 37.8 ± 0.9 µM

Structure (SMILES): O=C(/C=C/c1c[nH]c2ccccc12)c1ccccc1F [11a, (2E)-1-(2″-Fluorophenyl)-3-(1′H-indol-3′-yl)prop-2-en-1-one]
- IC50 (Hela): 41.7 ± 0.2 µM
- FRAP [1]: 62.2 (±9.9) µmol GAE/mmol
- IC50 (MCF-10A): 89.1 ± 2.4 µM
- ABTS [2]: 150.6 (±4.7) µmol GAE/mmol
- IC50 (MDA-MB-231): 51.4 ± 3.2 µM
- IC50 (MCF-7; MCF-7, 72 h incubation): 37.1 ± 0.4 µM
- IC50 (HCT116; HCT116, 72 h incubation): 31.8 ± 2.1 µM
- DPPH [3]: 20.5 (±4.0) µmol GAE/mmol
- IC50 (Jurkat): < 8.3 µM and 7.6 µM

Structure (SMILES): CC(C)Oc1[nH]c2ccccc2c1/C=C/C(=O)c1ccc(F)cc1 [11g, (2E)-1-(4″-Fluorophenyl)-3-(2′-isopropoxy-1′H-indol-3′-yl)prop-2-en-1-one]
- IC50 (Hela): 34.2 ± 0.1 µM
- IC50 (MCF-10A): 41.8 ± 1.5 µM
- IC50 (MDA-MB-231): 33.3 ± 0.3 µM
- IC50 (MCF-7; MCF-7, 72 h incubation): 17.1 ± 2.3 µM
- IC50 (HCT116; HCT116, 72 h incubation): 31.7 ± 1.7 µM
- IC50 (Jurkat): 36.7 ± 4.9 µM

Structure (SMILES): CCCCOc1[nH]c2ccccc2c1/C=C/C(=O)c1ccccc1F [11h, (2E)-3-(2′-butoxy-1′H-indol-3′-yl)-1-(2″-fluorophenyl)prop-2-en-1-one]
- IC50 (Hela): 48.2 ± 1 µM
- IC50 (MCF-10A): 65.5 ± 3.7 µM
- IC50 (MDA-MB-231): 36.3 ± 2.1 µM
- IC50 (MCF-7; MCF-7, 72 h incubation): 13.8 ± 3.5 µM
- IC50 (HCT116; HCT116, 72 h incubation): 31 ± 2.9 µM
- IC50 (Jurkat): 35.9 ± 1.8 µM

Structure (SMILES): COc1[nH]c2ccccc2c1/C=C/C(=O)c1ccccc1F [11d, (2E)-1-(2″-Fluorophenyl)-3-(2′-methoxy-1′H-indol-3′-yl)prop-2-en-1-one]
- IC50 (Hela): > 100 µM
- IC50 (MCF-10A): 98 ± 1.3 µM
- IC50 (MDA-MB-231): 95.5 ± 2.7 µM
- IC50 (MCF-7; MCF-7, 72 h incubation): 32 ± 1.2 µM
- IC50 (HCT116; HCT116, 72 h incubation): 45.5 ± 2.4 µM
- IC50 (Jurkat): 11.4 ± 1.9 µM

Structure (SMILES): O=C(O)/C=C/c1ccc(O)c(O)c1 [caffeic acid, reference compound]
- FRAP [1]: 500.0 (±33.5) µmol GAE/mmol
- ABTS [2]: 586.0 (±32.8) µmol GAE/mmol
- DPPH activity [3]: 690.7 ± 36.6 GAE/mmol
- DPPH [3]: 690.7 (±36.6) µmol GAE/mmol

Structure (SMILES): Cn1cc(/C=C/C(=O)c2ccccc2F)c2ccccc21 [11b, (2E)-1-(2″-Fluorophenyl)-3-(1′-metyl-1′H-indol-3′-yl)prop-2-en-1-one]
- IC50 (Hela): 57.9 ± 0.4 µM
- FRAP [1]: 47.2 (±1.0) µmol GAE/mmol
- IC50 (MCF-10A): > 100 µM
- ABTS [2]: 5.7 (±2.7) µmol GAE/mmol
- IC50 (MDA-MB-231): > 100 µM
- IC50 (MCF-7; MCF-7, 72 h incubation): 47.5 ± 4.3 µM
- IC50 (HCT116; HCT116, 72 h incubation): 41.5 ± 1.7 µM
- DPPH [3]: 18.9 (±2.3) µmol GAE/mmol
- IC50 (Jurkat): 32.4 ± 1.2 µM

Structure (SMILES): Cn1cc(C(=O)/C=C/c2ccc(O)c(O)c2)c2ccccc21 [18b, (2E)-3-(3,4-dihydroxyphenyl)-1-(1-methyl-1H-indol-3-yl)prop-2-en-1-one]
- IC50 (Hela; Homo sapiens): 6.7 ± 0.8 µM
- FRAP [1]: 564.8 (±2.2) µmol GAE/mmol
- IC50 (MCF-10A; Homo sapiens): 7.8 ± 0.3 µM
- ABTS [2]: 487.3 (±43.9) µmol GAE/mmol
- IC50 (MCF-7; [4]): 37.4 ± 2.2 µM
- melting point: 210 to 214 °C
- IC50 (HCT116; [5]): 7.1 ± 0.7 µM
- DPPH [3]: 589.1 (±8.9) µmol GAE/mmol

Structure (SMILES): COCC(C)Oc1[nH]c2ccccc2c1/C=C/C(=O)c1ccccc1F (stereo not shown) [11j, (2E)-1-(2-fluorophenyl)-3-{2-[(1-methoxypropan-2-yl)oxy]-1H-indol-3-yl}prop-2-en-1-one]
- IC50 (Hela; Homo sapiens, HeLa, 72 h): 50 ± 1.8 µM
- IC50 (MCF-10A; Homo sapiens, MCF-10A, 72 h): 76.5 ± 1.1 µM
- IC50 (MDA-MB-231; Homo sapiens): 51.2 ± 4.1 µM
- IC50 (MCF-7; [6]): 26.2 ± 0.5 µM
- IC50 (HCT116; [7]): 32.4 ± 1.3 µM
- IC50 (Jurkat; Homo sapiens): 40.4 ± 2.1 µM

Structure (SMILES): COc1cc(/C=C/C(=O)c2cn(C)c3ccccc23)ccc1O [19b, (2E)-3-(4-hydroxy-3-methoxyphenyl)-1-(1-methyl-1H-indol-3-yl)prop-2-en-1-one]
- IC50 (Hela; Homo sapiens): 34.9 ± 1.3 µM
- FRAP [1]: 262.2 (±14.2) µmol GAE/mmol
- IC50 (MCF-10A; Homo sapiens): 28.9 ± 0.8 µM
- ABTS [2]: 410.7 (±28.9) µmol GAE/mmol
- IC50 (MCF-7; [4]): 69.8 ± 1.1 µM
- melting point: 170 to 172 °C
- DPPH [3]: 225.6 (±14.7) µmol GAE/mmol

Structure (SMILES): CCOc1[nH]c2ccccc2c1/C=C/C(=O)c1ccccc1F [11e, (2E)-3-(2′-ethoxy-1′H-indol-3′-yl)-1-(2″-fluorophenyl)prop-2-en-1-one]
- IC50 (Hela): 75.2 ± 4.1 µM
- IC50 (MCF-10A): 94 ± 4.6 µM
- IC50 (MDA-MB-231): 72.2 ± 5.4 µM
- IC50 (MCF-7; MCF-7, 72 h incubation): 30.3 ± 2.2 µM
- IC50 (HCT116; HCT116, 72 h incubation): 40.1 ± 0.6 µM
- IC50 (Jurkat): < 8.3 µM and 8.3 µM

Structure (SMILES): COn1cc(/C=C/C(=O)c2ccccc2F)c2ccccc21 [11c, (2E)-1-(2″-Fluorophenyl)-3-(1′-methoxy-1′H-indol-3′-yl)prop-2-en-1-one]
- IC50 (Hela): 19.2 ± 5.7 µM
- FRAP [1]: 27.4 (±0.9) µmol GAE/mmol
- IC50 (MCF-10A): 67 ± 2.9 µM
- ABTS [2]: 41.4 (±6.7) µmol GAE/mmol
- IC50 (MDA-MB-231): 21.1 ± 3.9 µM
- IC50 (MCF-7; MCF-7, 72 h incubation): 20 ± 7.9 µM
- IC50 (HCT116; HCT116, 72 h incubation): 37.9 ± 2.7 µM
- DPPH [3]: 23.2 (±11.9) µmol GAE/mmol
- IC50 (Jurkat): < 8.3 µM and 5.9 µM

Structure (SMILES): O=C(O)/C=C/c1ccc(O)cc1 [p -coumaric acid, p-coumaric acid, reference compound]
- FRAP [1]: 105.2 (±4.2) µmol GAE/mmol
- ABTS [2]: 278.8 (±11.1) µmol GAE/mmol
- DPPH [3]: 23.0 (±3.1) µmol GAE/mmol

More lines, main results first:

- IC50 (MDA-MB-231; Homo sapiens): 39.3 ± 1.9 µM
- IC50 (MCF-7; [6]): 42.3 ± 3.3 µM
- melting point: 212 to 215 °C
- IC50 (HCT116; [7]): 29.8 ± 0.7 µM
Structure (SMILES): O=C(/C=C/c1ccc(O)c(O)c1)c1c[nH]c2ccccc12 [18a, (2E)-3-(3,4-dihydroxyphenyl)-1-(1H-indol-3-yl)prop-2-en-1-one]
- FRAP [1]: 480.9 (±28.8) µmol GAE/mmol
- IC50 (MCF-10A; Homo sapiens, MCF-10A, 72 h): 11.5 ± 1.4 µM
- ABTS [2]: 401.2 (±39.2) µmol GAE/mmol
- DPPH [3]: 520.1 (±6.9) µmol GAE/mmol

- IC50 (Hela; Homo sapiens, HeLa, 72 h): 31.4 ± 2 µM
- IC50 (MDA-MB-231; Homo sapiens): 39.6 ± 2.1 µM
- IC50 (MCF-7; [6]): 47.9 ± 0.2 µM
- melting point: 197 to 200 °C
Structure (SMILES): O=C(/C=C/c1ccc(O)cc1)c1c[nH]c2ccccc12 [17a, (2E)-3-(4-hydroxyphenyl)-1-(1H-indol-3-yl)prop-2-en-1-one]
- FRAP [1]: 161.6 (±5.7) µmol GAE/mmol
- IC50 (MCF-10A; Homo sapiens, MCF-10A, 72 h): 28.6 ± 0.5 µM
- ABTS [2]: 227.6 (±5.4) µmol GAE/mmol
- DPPH [3]: 16.0 (±1.1) µmol GAE/mmol

- IC50 (Hela; Homo sapiens, HeLa, 72 h): 39.8 ± 1.6 µM
- IC50 (MDA-MB-231; Homo sapiens): > 100 µM
- IC50 (MCF-7; [6]): > 100 µM
- melting point: 213 to 215 °C
Structure (SMILES): COn1cc(C(=O)/C=C/c2ccc(O)cc2)c2ccccc21 [17c, (2E)-3-(4-hydroxyphenyl)-1-(1-methoxy-1H-indol-3-yl)prop-2-en-1-one]
- FRAP [1]: 134.1 (±6.7) µmol GAE/mmol
- IC50 (MCF-10A; Homo sapiens, MCF-10A, 72 h): > 100 µM
- ABTS [2]: 209.0 (±6.6) µmol GAE/mmol
- DPPH [3]: 13.6 (±0.9) µmol GAE/mmol

- melting point: 155 to 156 °C
Structure (SMILES): COc1cc(/C=C/C(=O)c2cn(OC)c3ccccc23)ccc1O [19c, (2E)-3-(4-hydroxy-3-methoxyphenyl)-1-(1-methoxy-1H-indol-3-yl)prop-2-en-1-one]
- FRAP [1]: 296.2 (±10.4) µmol GAE/mmol
- ABTS [2]: 456.0 (±24.6) µmol GAE/mmol
- DPPH [3]: 207.7 (±8.6) µmol GAE/mmol
